How the values were obtained:
[1] = tested on: UT-SCC-42B; assay: High throughput drug screening (CellTiter-Glo, DSS); type: cell-based, human; details: for drug sensitivity score (DSS): 72 h, 10-100,000 nM, myogel, non-irradiated; for delta DSS (ΔDSS): DSS irradiated (2 Gy) minus DSS non-irradiated, >5 synergy, <–5 antagonism
Procedure: (§1) The MPMs were screened against a panel of […] different cell lines (HSC-3, UT-SCC-8, UT-SCC-24A, UT-SCC-24B, UT-SCC-42A, UT-SCC-42B and NOF) at the High Throughput Biomedicine Unit (HTB) at the Institute for Molecular Medicine Finland (FIMM). On day 1, black-walled 384-well plates were coated with 5 µl diluted myogel (0.5 mg/ml) per well using an automated reagent dispenser (MultiFlo FX, BioTek, Winooski, VT, United States). On day 2, 500 cells per well were seeded in 20 µl of complete media using the MultiFlo FX (BioTek), and the cells were left to adhere overnight. On day 3, the MPMs, cisplatin, DMSO and Benzethonium chloride were added to the cells using an automatic liquid handler (Echo 550, Labcyte Inc., San Jose, CA, United States). Cisplatin and the MPMs were added to yield five different concentrations in a ten-fold dilution series ranging from 10 to 100,000 nM. Each concentration was tested in triplicate wells. DMSO (0.1%) and benzethonium chloride (100 µM) served as negative and positive control, respectively. Three hours later, some of the plates were irradiated with 2 Gy in a gamma irradiator (OB29/4, STS, Braunschweig, Germany). All plates were taken to the irradiation room to ensure similar handling of the plates. 72 h later, the plates were cooled to room temperature before 25 µl of CellTiter-Glo 2.0 reagent (Promega, Madison, WI, USA) was added to each well using the MultiFlo FX (BioTek). Next, the plates were centrifuged for 5 min at 1,000 rpm before the luminescence signal was measured with the PHERAstar FS HT reader (BMG LABTECH GmbH, Ortenberg, Germany). The raw data was analyzed with the Breeze software (https://breeze.fmm.fi), which normalized the luminescence signal from treated cells against the signal from negative and positive control cells to calculate the percentage of inhibition and generate dose-response curves, which were then used to calculate drug sensitivity scores (DSS). The DSS is a parameter which combines the IC50, the slope of the dose-response curve, and the minimum and maximum responses into a single metric, as previously described ([Yadav et al., 2014]). Quality control was performed by calculation of the Z′-factor, which was >0.7 for all cell lines, indicating high quality of the assay ([Zhang et al., 1999]).

[2] = tested on: UT-SCC-24A; assay: as above; type: cell-based, human; details: for drug sensitivity score (DSS): 72 h, 10-100,000 nM, myogel, non-irradiated; for delta DSS (ΔDSS): DSS irradiated (2 Gy) minus DSS non-irradiated, >5 synergy, <–5 antagonism
Procedure: as §1

[3] = tested on: NOF (normal oral fibroblasts); assay: as above; type: cell-based, human; details: for drug sensitivity score (DSS): 72 h, 10-100,000 nM, myogel, non-irradiated; for delta DSS (ΔDSS): DSS irradiated (2 Gy) minus DSS non-irradiated, >5 synergy, <–5 antagonism
Procedure: as §1

[4] = tested on: UT-SCC-42A; assay: as above; type: cell-based, human; details: for drug sensitivity score (DSS): 72 h, 10-100,000 nM, myogel, non-irradiated; for delta DSS (ΔDSS): DSS irradiated (2 Gy) minus DSS non-irradiated, >5 synergy, <–5 antagonism
Procedure: as §1

[5] = tested on: seven HNSCC cell lines and one normal oral fibroblast cell line (NOF); assay: High throughput drug screening, statements on the whole panel; type: cell-based, human; details: 72 h, DSS
Procedure: as §1

[6] = tested on: human red blood cells; assay: Hemolysis assay; type: cell-based; details: for EC50: Homo sapiens, Erythrocyte, 1 h, 37°C, highest concentration tested 500 μM, average of three experiments, read-out: EC50 hemolytic activity against human red blood cells
Procedure: The hemolytic effect of the MPMs was determined using a hemolysis assay as previously described ([Paulsen et al., 2021]). Briefly, hemolysis was determined using a heparinized fraction (10 IU/mL) of freshly drawn blood. The blood collected in ethylenediaminetetraacetic acid-containing test tubes (Vacutest, KIMA, Arzergrande, Italy) was used for the determination of the hematocrit (hct). The heparinized blood was washed 3 × with pre-warmed phosphate-buffered saline (PBS) and adjusted to a final hct of 4%. MPMs in DMSO (50 mM) were added to a 96-well polypropylene V-bottom plate (NUNC, Fisher Scientific, Oslo, Norway) and serially diluted. The test concentration range was 4–500 μM with DMSO contents ≤1%. A solution of 1% triton X-100 was used as a positive control for 100% hemolysis. As a negative control, a solution of 1% DMSO in PBS was included. Red blood cells (1% v/v final concentration) were added to the well plate and incubated at 37°C and 800 rpm for 1 h. After centrifugation (5 min, 3000 g), 100 μL from each well was transferred to a 96-well flat-bottomed microtiter plate, and absorbance was measured at 545 nm with a microplate reader (VersaMaxTM, Molecular Devices, Sunnyvale, CA, United States). The percentage of hemolysis was calculated as the ratio of the absorbance in the MPM treated and surfactant-treated samples, corrected for the PBS background. Three independent experiments were performed, and EC50 values are presented as averages.

[7] = tested on: Staphylococcus aureus ATCC 9144; assay: Bacterial minimum inhibitory concentration (broth microdilution); type: cell-based; details: ATCC9144; Staphylococcus aureus ATCC 9144, 48 h, 35 °C, di-TFA salts
Procedure: (§2) Method for determination of bacterial minimum inhibitory concentration (MIC) Stock solutions of the water-soluble compounds were prepared by dissolving them in ultrapure water (Milli-Q H2O, Millipore, MA, USA). The less water-soluble compounds were first dissolved in 25 - 50 µL 100% DMSO before further dilution with ultrapure water. The DMSO concentration was always less than 1% in the working concentration of each compound. A modified broth microdilution susceptibility test based on the CLSI M07-A9 protocol, [2] was used to determine minimal inhibitory concentrations (MIC). Briefly, the test compounds were two-fold diluted with ultrapure water in polystyrene 96-well flat-bottom microplates (NUNC, Roskilde, Denmark). The bacterial inoculum was diluted to 2.5 - 3 x 10^4 cells/mL in Mueller-Hinton broth (MHB, Difco Laboratories, USA) and added to the different diluted compounds in a ratio of 1:1. Positive control (ciprofloxacin, Sigma-Aldrich, USA), negative control (bacteria + water), and media control (media + water) were included in each experiment. The microplates were incubated for 48 h at 35 °C in an EnVision microplate reader (PerkinElmer, Waltham, MA, USA). The lowest concentration of compounds that caused no bacterial growth, as determined by optical density (OD600) measurements, was defined as the MIC value. All compounds were tested in 3 technical replicates.
(§3) Supplementary Video S1. HSC-3 cells were seeded at 100% confluence and a standard scratch wound migration assay was performed. The cells were imaged every 2 hours for 24 hours. The video

[8] = tested on: Escherichia coli ATCC 25922; assay: as above; type: cell-based; details: ATCC25922; Escherichia coli ATCC 25922, 48 h, 35 °C, di-TFA salts
Procedure: as §2, §3

[9] = tested on: Pseudomonas aeruginosa ATCC 27853; assay: as above; type: cell-based; details: ATCC27853; Pseudomonas aeruginosa ATCC 27853, 48 h, 35 °C, di-TFA salts
Procedure: as §2, §3

[10] = tested on: Bacillus subtilis 168; assay: as above; type: cell-based; details: Bacillus subtilis 168, 48 h, 35 °C, di-TFA salts
Procedure: as §2, §3

Compound	drug sensitivity score (DSS) [1]	delta DSS (ΔDSS) [1]	drug sensitivity score (DSS) [2]	delta DSS (ΔDSS) [2]	drug sensitivity score (DSS) [3]	delta DSS (ΔDSS) [3]	drug sensitivity score (DSS) [4]	delta DSS (ΔDSS) [4]	potency / effect on viability over the cell line panel (in words) [5]	EC50 [6] [µM]	MIC [7] [µg/mL]	MIC [8] [µg/mL]	MIC [9] [µg/mL]	MIC [10] [µg/mL]	hemolytic activity against red blood cells (in words) ([6]; test range 4–500 μM)
N.N.[Cl][Pt][Cl] [Cisplatin, cisplatin, reference compound]	7,7	-0,6	8,9	-0,9	9,6	-1,9	7,1	-0,1							
NCCN1C(=O)N(CCN)C(=O)C(CCCc2ccccc2)(CCCc2ccccc2)C1=O [MPM-2:0]	18,7	-0,1	18,7	-0,7	18,3	-0,7	19	-0,7	had the highest DSS	379	8	16	16	8	
CN(C)CCCN1C(=O)N(CCCN(C)C)C(=O)C(CCCc2ccccc2)(CCCc2ccccc2)C1=O [MPM-3:2]	15,7	0,3	17,9	-0,2	19,3	-1,6	16	0,6	had the highest DSS	> 500	> 64	32	> 64	16	
CN(C)CCCCN1C(=O)N(CCCCN(C)C)C(=O)C(CCCc2ccccc2)(CCCc2ccccc2)C1=O [MPM-4:2]	16,6	-0,4	18,4	-0,6	22,6	1,2	17	0,4	had the highest DSS	> 500	64	32	> 64	16	
NCCCCCCN1C(=O)N(CCCCCCN)C(=O)C(CCCc2ccccc2)(CCCc2ccccc2)C1=O [MPM-6:0]	18,4	-0,5	18,6	-0,2	18	-0,3	17,9	0,3	had the highest DSS	92	4	8	8	2	the most hemolytic compound

— article PMC10098121, “Amphipathic barbiturates as marine product mimics with cytolytic and immunogenic effects on head and neck squamous cell carcinoma cell lines” (Frontiers in Pharmacology, 2023)
